# Results published in patent US20230285516A1 (priority 2020, published 2023).
# “Also recorded” adds a separate entry of the source.
# Legend:
# IL-1β = IL-1β in co-culture supernatants (ELISA); format: cell-based, human; details: RA or OA co-cultures, day 7 of culture
# Experimental: (§1) Cartilage and synovium co-cultures were performed from 9 patients with RA and 8 patients with OA who underwent hip or knee replacement (Table 1). Joint tissue was cultured with (a) RPMI (control), (b) 1% type I polymerized collagen, for 7 days. The supernatants and tissues of days 1 and 7 were […] collected. In the culture supernatants the concentration of IL-1β, IL-8, IL-10, IL-12, TNF-α and IFN-γ was quantified by ELISA and the results were normalized with total protein concentration. The expression of IL-1β and TNF-α was evaluated using histochemistry.
# (§2) FIG. 3. Effect of type I polymerized collagen on IL-1β expression in supernatants of cartilage and synovium co-cultures from patients with rheumatoid arthritis (RA) or osteoarthritis (OA). The data represent the mean±SD of 9 co-cultures of cartilage and synovial tissue from patients with RA and of 8 co-cultures of patients with OA. Each culture was performed in triplicate for each condition. The results were normalized with the total protein concentration of the supernatant, determined by the Folin-Lowry micromethod. AR: left panel. OA: panel on the right. Basal: tissue in basal conditions.
# TNF-α = TNF-α in co-culture supernatants (ELISA); format: cell-based, human; details: RA or OA co-cultures, day 7 of culture
# Experimental: as §1
# as §2, with “4.” for “3.”, “TNF-α” for “IL-1β”, “synovial tissue” for “synovium”, “synovium” for “synovial tissue”, “Folin-Löwry” for “Folin-Lowry”, “conditions. […] No detectable levels of IL-12 and IFN-γ were determined in the cultures.” for “conditions.”
# Foxp3 = Foxp3 gene expression in co-cultured tissues (RT-PCR); format: cell-based, human; details: vs control
# From the text: FIG. 7. Effect of type I polymerized collagen on the gene expression of pro- and anti-inflammatory cytokines and factors in the tissues of cartilage and synovial tissue co-cultures of patients with rheumatoid arthritis (RA). (A) Quantification of TNF-α, IL-6 and IL-10 gene expression and (B) Quantification of IL-23 and Foxp3 gene expression by RT-PCR in synovial membrane tissues and cartilage co-cultured for 7 days. The bars show the mean±SD of the transcript levels of the samples normalized through the expression of the housekeeping gene GADPH determined by 2ΔΔCt. The data represent the mean±SD of 9 cartilage and synovial co-cultures from RA patients. Each culture was performed in triplicate for each condition. Basal: tissue in basal conditions.
# FIG. 8. Effect of type I polymerized collagen on the gene expression of pro- and anti-inflammatory cytokines and factors in the tissues of cartilage and synovial co-cultures of patients with Osteoarthritis (OA). (A) Quantification of IL-1β, INF-α, IL-6 and IL-10 gene expression, (B) IL-23 and Foxp3 by RT-PCR in co-cultured cartilage and synovial membrane tissues for 7 days. The bars show the mean±SD of the transcript levels of the samples normalized through the expression of the housekeeping gene GADPH determined by 2ΔΔCt. The data represent the mean±SD of 8 co-cultures from patients with OA. […]
# mice with CIA = assay: Histopathological analysis of hind legs, collagen-induced arthritis (CIA) models; format: in vivo; details: H&E and PAS, intramuscular weekly for 6 weeks
# Experimental: (§3) Early Arthritis Model. Fifty mice with the same characteristics were immunized at the base of the tail with 100 μg of chicken type II collagen emulsified in complete Freund's adjuvant. The boost was applied on day 21 at the base of the tail with 100 μg of type II collagen emulsified with Freund's incomplete adjuvant. On the same boosting day, the treatments (a-d) were applied every week for six weeks. Three animals were euthanized in the sixth week and three in the thirteenth week. The spleen, lymph nodes, joint tissue, liver, lungs, kidneys and heart were obtained in order to assess the inflammatory infiltrate, the predominant cell populations and the expression of pro- and anti-inflammatory cytokines.
# (§4) Established Arthritis Model. Arthritis was induced as in the previous model in 50 mice and the treatments were applied intramuscularly, after 2 weeks of the boost, every week for 6 weeks. Three animals were euthanized in the eighth week and three in the fifteenth week. The spleen, lymph nodes, joint tissue, liver, lungs, kidneys and heart were obtained in order to assess the inflammatory infiltrate, the predominant cell populations and the expression of pro- and anti-inflammatory cytokines.
# Histological evaluation. The inflammatory infiltrate and tissue architecture were evaluated by H&E and Masson's trichrome staining and the content of proteoglycans, with the PAS technique. […]
# Th17 (CD4+/IL-17+) cells = assay: FACS of spleen Th17 cells in CIA models; format: in vivo, mice; details: CIA model, fold
# Experimental: as §3
# as §4, with “cytokines. […]” for “cytokines.”
# (§5) FIG. 10. […] The intracellular production of IL-17A, IL-4, IFN-γ and Foxp3 by CD4+ T cells was detected by flow cytometry. The results are representative of 6 mice analyzed in each group. […]
# Th2 (CD4+/IL-4+) cells = assay: FACS of spleen Th2 cells in CIA models; format: in vivo, mice; details: early arthritis model, first sacrifice only
# Experimental: as §3
# as §4, with “cytokines. […]” for “cytokines.”
# as §5
# Treg (CD4+/FOXP3+) cells = assay: FACS of spleen Foxp3+ regulatory T cells in CIA models; format: in vivo, mice
# Experimental: as §3, §4
# Cytometric evaluation. Using FACS, the percentage of populations of Th1 ([…]), Th2 (CD4^+/IL-4^+), Treg (CD4^+/FOXP3^+) Th17 (CD4^+/IL-17^+) and dendritic (CD4−/CD11c^+) cells in spleen cells.
# FIG. 10. Effect of type I polymerized collagen in the early (preventive) and long-standing (late or palliative) arthritis model on the percentage of spleen CD4+ T cell subpopulations. (A) Spleen cells obtained ex vivo in the early arthritis model during the first sacrifice. (B) Spleen cells obtained ex vivo in the early arthritis model during the second sacrifice. (C) Spleen cells obtained ex vivo in the long-standing arthritis model during the first sacrifice. […] The intracellular production of IL-17A, IL-4, IFN-γ and Foxp3 by CD4+ T cells was detected by flow cytometry. The results are representative of 6 mice analyzed in each group. […]
substance,measurement,setting,value
collagen-polyvinylpyrrolidone [type I polymerized collagen],expression of IL-1β vs. the controls in the supernatants,IL-1β,decreased
same,expression of TNF-α vs. the controls in the supernatants,TNF-α,decreased
same,gene expression of Foxp3,Foxp3; co-cultures from patients with OA,positive regulation
same,transcription of FOXP3 gene,Foxp3; co-cultures from patients with RA,positively
same,"histopathology of joint tissue (inflammation, tissue architecture)",mice with CIA,decreased the degree of inflammation and preserved the joint structure; also recorded: maintained a tissue architecture similar to normal
same,negative regulation of the subpopulation of Th17 cells,Th17 (CD4+/IL-17+) cells,1.5-2.0 ×
same,number of circulating Th2 cells,Th2 (CD4+/IL-4+) cells,modified
same,positive regulation of Tregs cells,"Treg (CD4+/FOXP3+) cells; CIA model, fold",5.0-6.0 ×
same,Foxp3+ regulatory T cells,"Treg (CD4+/FOXP3+) cells; early and long-standing arthritis, first and second sacrifice, vs placebo",increase
